These results are taken from PMC9728226, “Suppressive Effects of a Truncated Inhibitor K562 Protein-Derived Peptide on Two Proinflammatory Cytokines, IL-17 and TNF-α” (Journal of Microbiology and Biotechnology, 2020).

In assay [1] the test system is Th17 cell differentiation (mouse IL-17). Type of assay: cell-based. Conditions: 1.0 μg/ml; second experiment (Fig. 3B), control 0.1% DMSO; IL-17 ELISA; mean of n = 3. Here is the method:
Naïve CD4^+ T cells were isolated from the spleen of wild-type Balb/c mice via magnetic-activated cell sorting using a CD4^+ T Cell Isolation Kit (Miltenyi Biotec, Germany), in accordance with the manufacturer’s instructions. The RPMI medium for stimulating Th17 cell differentiation included 10 μg/ml anti-CD3 (eBioscience, USA), 1.5 μg/ml anti-CD28 (eBioscience), 5 ng/ml transforming growth factor-β (R&D Systems, USA), and 20 ng/ml IL-6 (BioLegend, USA). After cells had been cultured in this conditioned medium for 2 days at 37°C, 100 μl of the supernatant was analyzed for mouse IL-17 (mIL-17) using an IL-17-specific enzyme-linked immunosorbent assay (ELISA). All tests were repeated three times independently, and the means and standard deviations (SDs) from three tests were calculated.
In general terms: ELISA stands for enzyme-linked immunosorbent assay.

Assay [2] has as its system mTNF-α secretion by J774A.1 cells. As to the kind of experiment: mTNF-α secretion by LPS-stimulated J774A.1 cells, ELISA. Conditions: 24 h, mean of n = 3; for inhibition of mTNF-α: J774A.1 cells, 100 ng/ml LPS, Fig. 3D. The format is cell-based, mouse. Here is the method: The murine monocyte/macrophage cell line J774A.1 was obtained from the American Type Culture Collection (ATCC, USA), grown in Dulbecco’s modified Eagle’s medium (Gibco Laboratories, USA), and cultured at 37°C in humidified 5% CO2. The culture medium was supplemented with 10% fetal bovine serum and 2 mM glutamine. The cells were seeded into 24-well culture plates at a density of 1 × 10^5/ml and allowed to adhere overnight. Thereafter, the medium was replaced with fresh medium. The cells were pre-treated with DMS or a peptide (P1, P2, P3, P4, or P4S) and then stimulated with 100 ng/ml of lipopolysaccharide (LPS). Supernatants were collected after 24 h and stored at -20°C. Concentrations of mouse TNF-α (mTNF-α) were measured using ELISA (Mouse TNF-α DuoSet ELISA Kit; R&D Systems Europe, UK) according to the manufacturer’s instructions. All tests were repeated three times independently, and the results are expressed as means ± SDs.

Peptide text beside a SMILES is read from it.

Take “YPATMDDMA [P4S, 9-mer human tIK-derived peptide, fragment homolog of P4]”: the “inhibition of mIL-17” value in assay [1] turned out to be 43.8%. The “inhibition of mTNF-α” value is 45.5% in assay [2] (0.1 μg/ml) and 50.7% in assay [2] (1.0 μg/ml).
Take `CSCC[C@H](NC(=O)[C@H](CC(=O)O)NC(=O)[C@H](CC(=O)O)NC(=O)[C@H](CCSC)NC(=O)[C@@H](NC(=O)[C@H](C)NC(=O)[C@@H]1CCCN1C(=O)[C@@H](N)Cc1ccc(O)cc1)[C@@H](C)O)C(=O)N[C@@H](C)C(=O)N[C@H](C(=O)N[C@@H](CC(=O)O)C(=O)N[C@@H](CO)C(=O)N[C@@H](CC(=O)O)C(=O)N[C@@H](CCC(=O)O)C(=O)N[C@@H](CCC(=O)O)C(=O)N[C@H](C(=O)N[C@@H](CC(=O)O)C(=O)N[C@@H](Cc1ccc(O)cc1)C(=O)O)C(C)C)C(C)C` [P4] (H-YPATMDDMAVDSDEEVDY-OH; N-terminus and C-terminus assumed): the “inhibition of mIL-17” value in assay [1] was 42.4%. The “inhibition rate against mTNF-α” value in assay [2] (1 μg/ml, J774A.1 cells pre-treated, then 100 ng/ml LPS, vs LPS-only group, Fig. 3C) was 50.2%.
